≈ marks a conversion by molar mass, not a printed value. Where a SMILES comes first, the peptide text is derived from it.
Experiments:
E. coli NCTC 9001 [1] = assay type: cell-based; details: NCTC 9001, 72 h
Method: Whole lymph or purified components, resuspended in PBS to a final volume equal to the starting material (heated lymph), was applied in 3 mm wells on agar plates seeded with the test organisms. Antibacterial activity was determined by measuring the growth-inhibition zones (in mm).
Test conditions: agar inhibition zone obtained with 10 namomole apidaecin, resuspended in 20 μl H2 O/well.

[2] = test system: Agrobactierium tumefaciens DSM 3129; assay: Minimal inhibitory concentration in liquid culture; assay type: cell-based; details: 200 μl rich medium, 10^4 log-phase bacteria
[3] = test system: Corynebacterium insidiosum NCPPB 1109; assay: Minimal inhibitory concentration in liquid culture; assay type: cell-based; details: 200 μl rich medium, 10^4 log-phase bacteria
Method: (§1) In addition the exact concentration was determined precisely by amino-acid analysis and an equal sample of natural Bee 6b was prepared, allowing to compare the bactericidal activity of both natural and synthetic apidaecins by means of growth inhibition assays in liquid cultures (see mat & Meth.). The minimal inhibitory concentrations (μg/ml) were determined in liquid culture : 200 μl of a rich medium (trypticase soy broth or nutrient broth) was inoculated with 10^4 log-phase bacteria. Peptide concentrations ranged between 0 and 200 μg/ml. The values express μg/ml; when no inhibition was noticed the maximal values are given (+200 μg/ml or +50 μg/ml). All peptides were chemically synthesized, except for bee 6b which is purified from bee lymph.

[4] = test system: Corynebacterium michiganense pv. michiganense NCPPB 1573; assay: Minimal inhibitory concentration in liquid culture; assay type: cell-based; details: 200 μl rich medium, 10^4 log-phase bacteria, + = no inhibition at maximal value
Method: as §1

Shigella flexneri CP 87 = assay: Minimal inhibitory concentration in liquid culture; assay type: cell-based; details: 200 μl rich medium, 10^4 log-phase bacteria
Method: as §1

[5] = test system: Xanthomonas campestris pv. vesicatoria LMG 905; assay: Minimal inhibitory concentration in liquid culture; assay type: cell-based; details: 200 μl rich medium, 10^4 log-phase bacteria, + = no inhibition at maximal value
Method: as §1

[6] = test system: Erwinia carotovora var atroseptica LMG 2385; assay: Minimal inhibitory concentration in liquid culture; assay type: cell-based; details: 200 μl rich medium, 10^4 log-phase bacteria
[7] = test system: Erwinia carotovora var carotovora NCPPB 312; assay: Minimal inhibitory concentration in liquid culture; assay type: cell-based; details: 200 μl rich medium, 10^4 log-phase bacteria
[8] = test system: Erwinia salicis NCPPB 2530; assay: Minimal inhibitory concentration in liquid culture; assay type: cell-based; details: 200 μl rich medium, 10^4 log-phase bacteria
[9] = test system: Pseudomonas syringae pv. tomato NCPPB 1106; assay: Minimal inhibitory concentration in liquid culture; assay type: cell-based; details: 200 μl rich medium, 10^4 log-phase bacteria
[10] = test system: Pseudomonas syringae pv. maculicola NCPPB 1776; assay: Minimal inhibitory concentration in liquid culture; assay type: cell-based; details: 200 μl rich medium, 10^4 log-phase bacteria
[11] = test system: Pseudomonas syringae pv. tabaci NCPPB 1237; assay: Minimal inhibitory concentration in liquid culture; assay type: cell-based; details: 200 μl rich medium, 10^4 log-phase bacteria
[12] = test system: Pseudomonas solanacearum ATCC 11696; assay type: cell-based; details: 200 μl rich medium, 10^4 log-phase bacteria
[13] = test system: Rhizobium meliloti ZB 314; assay: Minimal inhibitory concentration in liquid culture; assay type: cell-based; details: 200 μl rich medium, 10^4 log-phase bacteria
[14] = test system: Xanthomonas campestris pv. campestris A 902; assay: Minimal inhibitory concentration in liquid culture; assay type: cell-based; details: 200 μl rich medium, 10^4 log-phase bacteria, + = no inhibition at maximal value
[15] = test system: Citrobacter freundii ATCC 8090; assay: Minimal inhibitory concentration in liquid culture; assay type: cell-based; details: 200 μl rich medium, 10^4 log-phase bacteria
[16] = test system: Escherichia coli NCTC 9001; assay: Minimal inhibitory concentration in liquid culture; assay type: cell-based; details: 200 μl rich medium, 10^4 log-phase bacteria
Salmonella Newport CD 94 = assay: Minimal inhibitory concentration in liquid culture; assay type: cell-based; details: 200 μl rich medium, 10^4 log-phase bacteria
[17] = test system: Salmonella typhimurium ATCC 23565; assay: Minimal inhibitory concentration in liquid culture; assay type: cell-based; details: 200 μl rich medium, 10^4 log-phase bacteria
[18] = test system: Bacillus megaterium QB 1551; assay: Minimal inhibitory concentration in liquid culture; assay type: cell-based; details: 200 μl rich medium, 10^4 log-phase bacteria, + = no inhibition at maximal value
E. coli NCTC 9001 [19] = assay: Bactericidal activity, method not stated; assay type: cell-based; details: lyophilized apidaecins resuspended in PBS

CC[C@H](C)[C@H](NC(=O)[C@H](Cc1ccc(O)cc1)NC(=O)[C@@H](NC(=O)[C@@H]1CCCN1C(=O)[C@H](CCCNC(=N)N)NC(=O)[C@H](CC(N)=O)NC(=O)[C@H](CC(N)=O)NC(=O)CN)C(C)C)C(=O)N1CCC[C@H]1C(=O)N[C@@H](CCC(N)=O)C(=O)N1CCC[C@H]1C(=O)N[C@@H](CCCNC(=N)N)C(=O)N1CCC[C@H]1C(=O)N1CCC[C@H]1C(=O)N[C@@H](Cc1cnc[nH]1)C(=O)N1CCC[C@H]1C(=O)N[C@@H](CCCNC(=N)N)C(=O)N[C@@H](CC(C)C)C(=O)O [bee 6b] (H-GNNRPVYIPQPRPPHPRL-OH)
cell division and callus formation (Tobacco leaf protoplasts; after immobilization in low melting agarose): normal cell division and callus formation occured | visible effects during incubation (Tobacco leaf protoplasts; tobacco leaf protoplasts 10^6 cells/ml, 2 days, 10 ng/ml up to 50 μg/ml): no visible effects were observed

CC[C@H](C)[C@H](NC(=O)[C@@H](N)Cc1ccc(O)cc1)C(=O)N1CCC[C@H]1C(=O)N[C@@H](CCC(N)=O)C(=O)N1CCC[C@H]1C(=O)N[C@@H](CCCNC(=N)N)C(=O)N1CCC[C@H]1C(=O)N1CCC[C@H]1C(=O)N[C@@H](Cc1c[nH]cn1)C(=O)N1CCC[C@H]1C(=O)N[C@@H](CCCNC(=N)N)C(=O)N[C@@H](CC(C)C)C(=O)O [Apid IB6, Y-I-P-Q-P-R-P-P-H-P-R-L] (H-YIPQPRPPHPRL-OH)
agar inhibition zone (E. coli NCTC 9001 [1]): 9 mm

CC[C@H](C)[C@H](NC(=O)[C@H](CCCNC(=N)N)NC(=O)[C@@H]1CCCN1C(=O)[C@H](Cc1c[nH]cn1)NC(=O)[C@@H]1CCCN1C(=O)[C@@H]1CCCN1C(=O)[C@H](CCCNC(=N)N)NC(=O)[C@@H]1CCCN1C(=O)[C@H](CCC(N)=O)NC(=O)[C@@H]1CCCN1C(=O)[C@@H](NC(=O)[C@H](Cc1ccc(O)cc1)NC(=O)[C@@H](NC(=O)[C@@H]1CCCN1C(=O)[C@H](CCCNC(=N)N)NC(=O)[C@H](CC(N)=O)NC(=O)[C@H](CC(N)=O)NC(=O)[C@H](CC(N)=O)NC(=O)CN)C(C)C)[C@@H](C)CC)C(=O)O [Apid NT+1] (H-GNNNRPVYIPQPRPPHPRI-OH)
minimal inhibitory concentration [2]: 0.2 µg/mL (≈ 0.09 µM) | minimal inhibitory concentration [3]: 100 µg/mL (≈ 45 µM) | minimal inhibitory concentration [4]: > 50 µg/mL | minimal inhibitory concentration (Shigella flexneri CP 87): 0.1 µg/mL (≈ 0.045 µM) | minimal inhibitory concentration [5]: > 50 µg/mL | minimal inhibitory concentration [6]: 1 µg/mL (≈ 0.45 µM) | minimal inhibitory concentration [7]: 2.5 µg/mL (≈ 1.12 µM) | minimal inhibitory concentration [8]: 0.02 µg/mL (≈ 0.009 µM) | minimal inhibitory concentration [9]: 1 µg/mL (≈ 0.45 µM) | minimal inhibitory concentration [10]: 2.5 µg/mL (≈ 1.12 µM) | minimal inhibitory concentration [11]: 2.5 µg/mL (≈ 1.12 µM) | minimal inhibitory concentration [12]: 25 µg/mL (≈ 11.2 µM) | minimal inhibitory concentration [13]: 0.1 µg/mL (≈ 0.045 µM) | minimal inhibitory concentration [14]: > 50 µg/mL | minimal inhibitory concentration [15]: 0.2 µg/mL (≈ 0.09 µM) | minimal inhibitory concentration [16]: 0.2 µg/mL (≈ 0.09 µM) | minimal inhibitory concentration (Salmonella Newport CD 94): 1 µg/mL (≈ 0.45 µM) | minimal inhibitory concentration [17]: 0.1 µg/mL (≈ 0.045 µM) | minimal inhibitory concentration [18]: 100 µg/mL | bactericidal activity (E. coli NCTC 9001 [19]): possessed a bactericidal activity

CC[C@H](C)[C@H](NC(=O)[C@H](Cc1ccc(O)cc1)NC(=O)[C@@H](NC(=O)[C@@H]1CCCN1C(=O)[C@H](CCCNC(=N)N)NC(=O)[C@H](CC(N)=O)NC(=O)[C@H](CC(N)=O)NC(=O)CN)C(C)C)C(=O)N[C@@H](CCC(N)=O)C(=O)N1CCC[C@H]1C(=O)N[C@@H](CCCNC(=N)N)C(=O)N1CCC[C@H]1C(=O)N1CCC[C@H]1C(=O)N[C@@H](Cc1c[nH]cn1)C(=O)N1CCC[C@H]1C(=O)N[C@@H](CCCNC(=N)N)C(=O)N[C@@H](CC(C)C)C(=O)O [Apid PT-1] (H-GNNRPVYIQPRPPHPRL-OH)
minimal inhibitory concentration [2]: 0.5 µg/mL (≈ 0.249 µM) | minimal inhibitory concentration (Shigella flexneri CP 87): 0.5 µg/mL (≈ 0.249 µM) | minimal inhibitory concentration [8]: 0.05 µg/mL (≈ 0.0249 µM) | minimal inhibitory concentration [9]: 0.1 µg/mL (≈ 0.0497 µM) | minimal inhibitory concentration [13]: 0.02 µg/mL (≈ 0.00994 µM) | minimal inhibitory concentration [15]: 5 µg/mL (≈ 2.49 µM) | minimal inhibitory concentration [16]: 5 µg/mL (≈ 2.49 µM) | minimal inhibitory concentration (Salmonella Newport CD 94): 5 µg/mL (≈ 2.49 µM) | minimal inhibitory concentration [17]: 5 µg/mL (≈ 2.49 µM) | minimal inhibitory concentration [18]: 150 µg/mL | bactericidal activity (E. coli NCTC 9001 [19]): possessed a bactericidal activity

CC[C@H](C)[C@H](NC(=O)[C@H](Cc1ccc(O)cc1)NC(=O)[C@@H](NC(=O)[C@@H]1CCCN1C(=O)[C@H](CCCNC(=N)N)NC(=O)[C@H](CC(N)=O)NC(=O)[C@H](CC(N)=O)NC(=O)CN)C(C)C)C(=O)N1CCC[C@H]1C(=O)N[C@@H](CCC(N)=O)C(=O)N1CCC[C@H]1C(=O)N[C@@H](CCCNC(=N)N)C(=O)N1CCC[C@H]1C(=O)N1CCC[C@H]1C(=O)N[C@@H](Cc1c[nH]cn1)C(=O)N1CCC[C@H]1C(=O)N[C@@H](CCCNC(=N)N)C(=O)N[C@@H](CC(C)C)C(=O)O [Apid Ib] (H-GNNRPVYIPQPRPPHPRL-OH)
agar inhibition zone (E. coli NCTC 9001 [1]): 18 mm | bactericidal activity (E. coli NCTC 9001 [19]): possessed a bactericidal activity

CC[C@H](C)[C@H](NC(=O)[C@H](Cc1ccc(O)cc1)NC(=O)[C@@H](NC(=O)[C@@H]1CCCN1)C(C)C)C(=O)N1CCC[C@H]1C(=O)N[C@@H](CCC(N)=O)C(=O)N1CCC[C@H]1C(=O)N[C@@H](CCCNC(=N)N)C(=O)N1CCC[C@H]1C(=O)N1CCC[C@H]1C(=O)N[C@@H](Cc1c[nH]cn1)C(=O)N1CCC[C@H]1C(=O)N[C@@H](CCCNC(=N)N)C(=O)N[C@@H](CC(C)C)C(=O)O [Apid Ib4, P-V-Y-I-P-Q-P-R-P-P-H-P-R-L] (H-PVYIPQPRPPHPRL-OH)
agar inhibition zone (E. coli NCTC 9001 [1]): 14 mm

CC[C@H](C)[C@H](NC(=O)[C@H](Cc1ccc(O)cc1)NC(=O)[C@@H](NC(=O)[C@@H]1CCCN1C(=O)[C@H](CCCNC(=N)N)NC(=O)[C@@H](N)CC(N)=O)C(C)C)C(=O)N1CCC[C@H]1C(=O)N[C@@H](CCC(N)=O)C(=O)N1CCC[C@H]1C(=O)N[C@@H](CCCNC(=N)N)C(=O)N1CCC[C@H]1C(=O)N1CCC[C@H]1C(=O)N[C@@H](Cc1c[nH]cn1)C(=O)N1CCC[C@H]1C(=O)N[C@@H](CCCNC(=N)N)C(=O)N[C@@H](CC(C)C)C(=O)O [Apid Ib2, N-R-P-V-Y-I-P-Q-P-R-P-P-H-P-R-L] (H-NRPVYIPQPRPPHPRL-OH)
agar inhibition zone (E. coli NCTC 9001 [1]): 16 mm

— patent publication US5300629A, “Bactericidal and/or bacteriostatic peptides isolated from hemolymph of honeybees” (Plant Genetic Systems, N.V., priority 1987, dated 1994)
